The first experiment concerns the target T1, His-hMAGL (recombinant polyhistidine tagged human MAGL protein) (Homo sapiens, UniProt Q99685).
T1 construct: polyhistidine (His) (N); made in house; host or cells: E. coli BL21(DE3)
T1 sequence (Q99685 1-303): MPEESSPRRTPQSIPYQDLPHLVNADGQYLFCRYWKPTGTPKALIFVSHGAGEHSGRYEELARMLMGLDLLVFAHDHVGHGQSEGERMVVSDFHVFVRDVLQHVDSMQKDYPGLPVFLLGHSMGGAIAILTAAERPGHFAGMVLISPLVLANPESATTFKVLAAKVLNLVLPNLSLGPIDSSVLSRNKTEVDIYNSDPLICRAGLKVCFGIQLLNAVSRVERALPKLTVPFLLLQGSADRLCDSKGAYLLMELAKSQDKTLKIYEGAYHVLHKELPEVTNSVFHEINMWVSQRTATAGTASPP
In words: Measurement of MAGL inhibitory activity (RapidFire-mass spectrometry of arachidonic acid produced from 2-arachidonylglycerol). It counts as biochemical. The following applies: test compound 10 μM; His-hMAGL; substrate 2-arachidonylglycerol; 60 min preincubation. An outline of the steps:
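After quenching with acetonitrile containing 3 μM arachidonic acid-d8, the arachidonic acid formed was measured by online SPE RapidFire-MS/MS in negative SRM mode and corrected against the d8 standard. Inhibition (%) was calculated relative to compound-free and enzyme-free groups.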
`CC(Oc1c(F)cc(F)cc1F)C1CCN(C(=O)[C@H]2C[C@]3(COC(=O)N3)C2)CC1` (stereo partly drawn) [Example 88, (2s,4s)-2-((4-(1-(2,4,6-trifluorophenoxy)ethyl)piperidin-1-yl)carbonyl)-7-oxa-5-azaspiro[3.4]octan-6-one]: the “% inhibition (10 μM)” value turned out to be 100%.
On to `CC(Oc1ccc(C(F)(F)F)cc1F)C1CN(C(=O)[C@H]2C[C@]3(COC(=O)N3)C2)C1` (stereo partly drawn) [Example 14, (2s,4s)-2-((3-(1-(2-fluoro-4-(trifluoromethyl)phenoxy)ethyl)azetidin-1-yl)carbonyl)-7-oxa-5-azaspiro[3.4]octan-6-one], for which the “% inhibition (10 μM)” value was 100%.

Staying with this experiment, now noted: test compound 10 μM; His-hMAGL; substrate 2-arachidonylglycerol; 60 min preincubation; 10 µM.
As for `CC(Oc1c(F)ccc(F)c1F)C1CCN(C(=O)[C@H]2C[C@]3(COC(=O)N3)C2)CC1` (stereo partly drawn) [Example 57, (2s,4s)-2-((4-(1-(2,3,6-trifluorophenoxy)ethyl)piperidin-1-yl)carbonyl)-7-oxa-5-azaspiro[3.4]octan-6-one], the “% inhibition (10 μM)” value was 100%.
The same measure, in the same setting: the result for `CC(Oc1ccc(Cl)cc1F)C1CCN(C(=O)[C@H]2C[C@]3(COC(=O)N3)C2)CC1` (stereo partly drawn) [Example 31, (2s,4s)-2-((4-(1-(4-chloro-2-fluorophenoxy)ethyl)piperidin-1-yl)carbonyl)-7-oxa-5-azaspiro[3.4]octan-6-one] reads 101%; that for `CC(Oc1cc(F)c(F)cc1F)C1CCN(C(=O)[C@H]2C[C@]3(COC(=O)N3)C2)CC1` (stereo partly drawn) [Example 55, (2s,4s)-2-((4-(1-(2,4,5-trifluorophenoxy)ethyl)piperidin-1-yl)carbonyl)-7-oxa-5-azaspiro[3.4]octan-6-one], 100%.
Same read-out and setting: the result for `CC1(C2CCN(C(=O)[C@H]3C[C@]4(COC(=O)N4)C3)CC2)Cc2cc(C(F)(F)F)ccc2O1` (stereo partly drawn) [Example 68, (2s,4s)-2-((4-(2-methyl-5-(trifluoromethyl)-2,3-dihydro-1-benzofuran-2-yl)piperidin-1-yl)carbonyl)-7-oxa-5-azaspiro[3.4]octan-6-one] reads 100%; that for `Cc1cc(F)ccc1OC(C)C1CCN(C(=O)[C@H]2C[C@]3(COC(=O)N3)C2)CC1` (stereo partly drawn) [Example 34, (2s,4s)-2-((4-(1-(4-fluoro-2-methylphenoxy)ethyl)piperidin-1-yl)carbonyl)-7-oxa-5-azaspiro[3.4]octan-6-one], 101%; that for `CC(Oc1ccc(Cl)cc1F)C1CCN(C(=O)[C@H]2C[C@]3(COC(=O)N3)C2)CC1` (stereo partly drawn) [Example 32, (2s,4s)-2-((4-(1-(4-chloro-2-fluorophenoxy)ethyl)piperidin-1-yl)carbonyl)-7-oxa-5-azaspiro[3.4]octan-6-one], 100%.

The experiment is the same for the next values; noted with them: test compound 10 μM; His-hMAGL; substrate 2-arachidonylglycerol; 60 min preincubation; read-out: % inhibition (10 μM).
Take `O=C1N[C@]2(CO1)C[C@H](C(=O)N1CCC(C(F)(F)c3ccc(F)cc3Cl)CC1)C2` [Example 112, (2s,4s)-2-((4-((2-chloro-4-fluorophenyl)(difluoro)methyl)piperidin-1-yl)carbonyl)-7-oxa-5-azaspiro[3.4]actan-6-one]: the inhibition – broadly, the change of the read-out against control, counted positive when it falls – at 10 µM was found to be 100%.
Regarding `O=C1N[C@]2(CO1)C[C@H](C(=O)N1CCC(C3(C(F)(F)F)Cc4cc(F)ccc4O3)CC1)C2` (stereo partly drawn) [Example 58, (2s,4s)-2-((4-(5-fluoro-2-(trifluoromethyl)-2,3-dihydro-1-benzofuran-2-yl)piperidin-1-yl)carbonyl)-7-oxa-5-azaspiro[3.4]octan-6-one], the inhibition at 10 µM was 100%.
The same measure, in the same setting: the result for `CC1(C2CCN(C(=O)[C@H]3C[C@]4(COC(=O)N4)C3)CC2)Cc2cc(C(F)(F)F)ccc2O1` (stereo partly drawn) [Example 53, (2s,4s)-2-((4-(2-methyl-5-(trifluoromethyl)-2,3-dihydro-1-benzofuran-2-yl)piperidin-1-yl)carbonyl)-7-oxa-5-azaspiro[3.4]octan-6-one] reads 101%; that for `Cc1ccc(C(F)(F)CC2CN(C(=O)[C@H]3C[C@]4(COC(=O)N4)C3)C2)cc1Cl` [Example 109, (2s,4s)-2-((3-(2-(3-chloro-4-methylphenyl)-2,2-difluoroethyl)azetidin-1-yl)carbonyl)-7-oxa-5-azaspiro[3.4]octan-6-one], 99%; that for `O=C1N[C@]2(CO1)C[C@H](C(=O)N1CC(CC(F)(F)c3ccc(C(F)(F)F)c(F)c3F)C1)C2` [Example 103, (2s,4s)-2-((3-(2-(2,3-difluoro-4-(trifluoromethyl)phenyl)-2,2-difluoroethyl)azetidin-1-yl)carbonyl)-7-oxa-5-azaspiro[3.4]octan-6-one], 100%.
Still for that read-out and setting: the result for `CC(Oc1ccc(F)c(F)c1F)C1CCN(C(=O)[C@H]2C[C@]3(COC(=O)N3)C2)CC1` (stereo partly drawn) [Example 80, (2s,4s)-2-((4-(1-(2,3,4-trifluorophenoxy)ethyl)piperidin-1-yl)carbonyl)-7-oxa-5-azaspiro[3.4]octan-6-one] reads 101%.
Take `O=C1N[C@]2(CO1)C[C@H](C(=O)N1CC(OCc3ccc(C(F)(F)F)c(F)c3F)C1)C2` [Example 96, (2s,4s)-2-((3-((2,3-difluoro-4-(trifluoromethyl)benzyl)oxy)azetidin-1-yl)carbonyl)-7-oxa-5-azaspiro[3.4]octan-6-one]: the inhibition at 10 µM worked out at 100%.
Turning to `O=C1N[C@]2(CO1)C[C@H](C(=O)N1CC(COc3ccc(C(F)(F)F)cc3F)C1)C2` [Example 9, (2s,4s)-2-((3-((2-fluoro-4-(trifluoromethyl)phenoxy)methyl)azetidin-1-yl)carbonyl)-7-oxa-5-azaspiro[3.4]octan-6-one], the inhibition at 10 µM amounted to 100%.
Regarding `O=C1N[C@]2(CO1)C[C@H](C(=O)N1CC(COc3cc(C(F)(F)F)cc(C(F)(F)F)c3)C1)C2` [Example 83, (2s,4s)-2-((3-((3,5-bis(trifluoromethyl)phenoxy)methyl)azetidin-1-yl)carbonyl)-7-oxa-5-azaspiro[3.4]octan-6-one], the inhibition at 10 µM was 100%.
Consider `O=C1N[C@]2(CO1)C[C@H](C(=O)N1CC(CC(F)(F)c3ccc(Cl)c(C(F)(F)F)c3)C1)C2` [Example 118, (2s,4s)-2-((3-(2-(4-chloro-3-(trifluoromethyl)phenyl)-2,2-difluoroethyl)azetidin-1-yl)carbonyl)-7-oxa-5-azaspiro[3.4]octan-6-one], for which the inhibition at 10 µM was 100%.
With `O=C1N[C@]2(CO1)C[C@H](C(=O)N1CCC(COc3ccc(N4CC(F)C4)cc3Cl)CC1)C2` [Example 49, (2s,4s)-2-((4-((2-chroro-4-(3-fluoroazetidin-1-yl)phenoxy)methyl)piperidin-1-yl)carbonyl)-7-oxa-5-azaspiro[3.4]octan-6-one], the inhibition at 10 µM came out at 101%.
On the same count and under the same terms, the result for `O=C1N[C@]2(CO1)C[C@H](C(=O)N1CC(OCc3ccc(C(F)(F)F)c(Cl)c3F)C1)C2` [Example 102, (2s,4s)-2-((3-((3-chloro-2-fluoro-4-(trifluoromethyl)benzyl)oxy)azetidin-1-yl)carbonyl)-7-oxa-5-azaspiro[3.4]octan-6-one] reads 100%.
As for `O=C1N[C@]2(CO1)C[C@H](C(=O)N1CC(CC(F)(F)c3ccc(F)c(C(F)(F)F)c3)C1)C2` [Example 100, (2s,4s)-2-((3-(2,2-difluoro-2-(4-fluoro-3-(trifluoromethyl)phenyl)ethyl)azetidin-1-yl)carbonyl)-7-oxa-5-azaspiro[3.4]octan-6-one], the inhibition at 10 µM was found to be 100%.
Consider `O=C1N[C@]2(CO1)C[C@H](C(=O)N1CC(OCc3ccc(OC(F)(F)F)c(Cl)c3)C1)C2` [Example 116, (2s,4s)-2-((3-((3-chloro-4-(trifluoromethoxy)benzyl)oxy)azetidin-1-yl)carbonyl)-7-oxa-5-azaspiro[3.4]octan-6-one], for which the inhibition at 10 µM amounted to 100%.
The same measure, in the same setting: the result for `Cc1ccc(COC2CN(C(=O)[C@H]3C[C@]4(COC(=O)N4)C3)C2)c(F)c1F` [Example 94, (2s,4s)-2-((3-((2,3-difluoro-4-methylbenzyl)oxy)azetidin-1-yl)carbonyl)-7-oxa-5-azaspiro[3.4]octan-6-one] reads 100%; that for `O=C1N[C@]2(CO1)C[C@H](C(=O)N1CC(COc3cc(C4CC4)c(C(F)(F)F)cc3F)C1)C2` [Example 65, (2s,4s)-2-((3-((5-cyclopropyl-2-fluoro-4-(trifluoromethyl)phenoxy)methyl)azetidin-1-yl)carbonyl)-7-oxa-5-azaspiro[3.4]octan-6-one], 101%.

Values taken from US10323026B2, “Heterocyclic compound” (Takeda Pharmaceutical Company Limited, priority 2016, dated 2019).
